{"source": "patent US7226949B2", "about": "“Compounds of use in the treatment of epilepsy, seizure, and electroconvulsive disorders” (University of Kentucky, priority 2002, dated 2007)", "key": {"6 Hz seizures": {"system": "6 Hz seizures", "test": "6 Hz kindling model", "format": "in vivo, mice", "procedure": "The 6 Hz kindling model is another experimental seizure model that effectively detects compounds with anti-seizure activity. This screen is used to evaluate the ability of a compound to prevent the acquisition of focal seizures; in particular, the capacity of a compound to prevent the development of seizures induced by a low-frequency (6 Hz), long duration (three seconds) stimulus in electrode […] is evaluated. Several of the most promising compounds were evaluated in this screen to further characterize their anti-seizure activity.\nIn the 6 Hz kindling test, mice are implanted with corneal electrodes. The test compound is administered (i.p.) to the animal at 0.25, 0.5, 1, 2, or 4 hours prior seizure induction. The seizure is initiated by delivering a current (32 mA at 6 Hz for three seconds) to the animal through the corneal electrodes. The resulting psychomotor seizure is usually characterized by a minimal clonic phase followed by stereotyped, automatistic behaviors. This response is analogous to the aura of human patients with partial seizures."}, "mice": {"system": "mice", "test": "Minimal neurotoxicity in mice, rotorod test", "conditions": "up to four hours after dosing, doses as high as 300 mg/kg", "quoted_text": "In mice, the test compound is administered at doses of 30, and 100 mg/kg prior to evaluation in the toxicity screens. The mice are tested at 0.5 hours and 4 hours after intraperitoneal administration of the test compound.\nToxicity in mice weighing between 18 and 25.5 g is assessed using the standardized rotorod test [9]. For each compound tested, a minimum of 18 animals are evaluated for neurotoxicity. Control mice can maintain their equilibrium for an extended period of time when they are placed on a 6-rpm rotation rod. Neurologically impaired animals cannot maintain equilibrium for one minute in each of three successive trials."}, "MES-induced seizure [1]": {"system": "MES-induced seizure", "test": "Maximal Electroshock Seizure (MES) test in mice, intraperitoneal administration", "format": "in vivo", "excerpt": "(§1) The Maximal Electroshock Seizure (MES) or Maximal Seizure Pattern Test\n(§2) The MES is an experimental model for generalized tonic-clonic seizures that identifies compounds that prevent seizure spread. The MES model is highly reproducible and has a consistent endpoint. An advantage of this model is that the behavioral and electrographic seizures are consistent with those observed in humans.\n(§3) In the MES test, the animal receives an electrical stimulus, 0.2 seconds in duration, via corneal electrodes primed with an electrolyte solution containing an anesthetic agent. The 0.2 second stimulation is generated with 150 mA in rats and 50 mA in mice at 60 Hz. […] In rats, the compound is administered orally, while mice receive the agent via intraperitoneal injection. The test endpoint, electrogenic seizure, is manifested as hindlimb tonic extension."}, "[2]": {"system": "focal seizures in hippocampal kindled rats", "test": "Hippocampal kindling model", "format": "in vivo, Sprague-Dawley rats", "design": "key to Racine Seizure Score ± SEM: Racine stage 1 to 5", "conditions": "for Afterdischarge Duration ± SEM / Racine Seizure Score ± SEM: rats, 100 mg/kg, n=7", "excerpt": "Hippocampal Kindling Model\nThe hippocampal kindling model is an experimental seizure model used to simulate focal seizures. This model evaluates the capacity of a compound to affect both the expression and acquisition of focal seizures. In addition, kindled seizures provide a methodology for studying complex brain networks that may contribute to the spread and generalizations of seizures from a focus. The hippocampal kindling model has the advantage of being one of the only kindling models that can evaluate the temporal effects of an agent in a single animal. For this assessment, bipolar electrodes are surgically implanted in the ventral hippocampus of adult male Sprague-Dawley rats (275-300 g) under ketamine-xylazine anesthesia. Following a one-week recovery period, stage five behavioral seizures are induced by stimulating the rat 12 times per day with 50 Hz, 10 s train of 1 ms biphasic 200 μA pulses delivered every 30 min for six hours on alternating days. After five stimulus days, the animal has had 60 stimulations. A drug free control period with supramaximal stimulations is used to verify the stability of a stage five generalized seizure before the anticonvulsant activity of a drug is measured.\nThis screen is used to measure the capacity of the drug to prevent the expression of focal seizures. […] The animal is exposed to an initial stimulation of 20 μA; the stimulation is increased in 10 μA increments every one-two minutes until an afterdischarge is recorded. After the stability of the stage five seizure is established, the drug candidate is administered to the rats via intraperitoneal injection 15 minutes after the last control stimulation. Starting with the first dose, the anticonvulsant activity of the test agent is measured every thirty minutes for four hours. Following each stimulation, Racine seizure scores and afterdischarge durations are compared to control values to quantify the anti-convulsant activity of the agent. The Racine seizure scores vary from stage 1 to 5. The stages are characterized according to the following criteria: Stage 1—mouth and facial clonus, Stage 2—stage 1 and head nodding, Stage 3—stage 2 and forelimb clonus, Stage 4—stage 3 and rearing, Stage 5—stage 4 and repeated rearing and falling. Since a single animal is used, each rat serves as its own control.\n4,4′-Thiodianiline was used in the rat hippocampal kindled rats to screen to measure its anticonvulsant potential. Doses of 12.5, 25, 50 and 100 mg/kg were evaluated at a minimum of seven time points (n=7 for each dose and each time point). […] After oral administration of the test compound stimulation, the Racine seizure scores and afterdischarge durations were measured and are shown below. The Racine seizure scores dropped from between a stage 4 and stage 5 seizure for control measurements to between a stage 1 and stage 2 seizure after treatment with 4,4′-thiodianiline."}, "MES-induced seizure [3]": {"system": "MES-induced seizure", "test": "Maximal Electroshock Seizure (MES) test in rats, oral administration", "format": "in vivo", "conditions": "for Percentage of rats in which the test compound prevented MES-induced seizure: 30 mg/kg oral", "excerpt": "as §1, §2, §3\nA full dose-response curve was also generated in rats to determine the ED50 value (n=8 at each time point). […] The ED50 of 4,4′-thiodianiline was evaluated in both rats and mice."}, "rats": {"system": "rats", "test": "Minimal neurotoxicity in rats, positional sense and gait and stance tests", "format": "in vivo", "conditions": "1 hour (time to peak effect) after oral administration", "excerpt": "If the rat experiences neurological toxicity, it will not be able to quickly lift its leg quickly back to a normal position.\nIn the gait and stance test, neurotoxicity is indicated by a circular or zigzag gait after administration of the test compound. In addition, ataxia, abnormal spread of the legs, abnormal posture, tremor hyperactivity, lack of exploratory behavior, somnolence, stupor, or catalepsy can indicate neurotoxicity."}, "[4]": {"conditions": "30 mg/kg i.p., 0.5 h after administration"}, "[5]": {"conditions": "100 mg/kg i.p., 0.5 h after administration"}, "[6]": {"conditions": "100 mg/kg i.p., 4.0 h after administration"}}, "data": [{"smiles": "Nc1ccc(Sc2ccc(N)cc2)cc1", "note": "[4,4′-thiodianiline]", "values": [{"measurement": "Percentage of mice in which the test compound prevented seizure in the 6 Hz test", "setting": "6 Hz seizures; 30 mg/kg i.p., 0.25 h after administration", "result": 0, "unit": "%"}, {"measurement": "Percentage of mice in which the test compound prevented seizure in the 6 Hz test", "setting": "6 Hz seizures; [4]", "result": 25, "unit": "%"}, {"measurement": "Percentage of mice in which the test compound prevented seizure in the 6 Hz test", "setting": "6 Hz seizures; 30 mg/kg i.p., 1.0 h after administration", "result": 25, "unit": "%"}, {"measurement": "Percentage of mice in which the test compound prevented seizure in the 6 Hz test", "setting": "6 Hz seizures; 30 mg/kg i.p., 2.0 h after administration", "result": 25, "unit": "%"}, {"measurement": "Percentage of mice in which the test compound prevented seizure in the 6 Hz test", "setting": "6 Hz seizures; 80 mg/kg i.p., 0.25 h after administration", "result": 100, "unit": "%"}, {"measurement": "Percentage of mice in which the test compound prevented seizure in the 6 Hz test", "setting": "6 Hz seizures; 80 mg/kg i.p., 0.5 h after administration", "result": 100, "unit": "%"}, {"measurement": "Percentage of mice in which the test compound prevented seizure in the 6 Hz test", "setting": "6 Hz seizures; 80 mg/kg i.p., 1.0 h after administration", "result": 100, "unit": "%"}, {"measurement": "Percentage of mice in which the test compound prevented seizure in the 6 Hz test", "setting": "6 Hz seizures; 80 mg/kg i.p., 2.0 h after administration", "result": 75, "unit": "%"}, {"measurement": "Percentage of mice in which the test compound prevented seizure in the 6 Hz test", "setting": "6 Hz seizures; 80 mg/kg i.p., 4.0 h after administration", "result": 0, "unit": "%"}, {"measurement": "Percentage of mice in which the test compound prevented seizure in the 6 Hz test", "setting": "6 Hz seizures; 100 mg/kg i.p., 0.25 h after administration", "result": 100, "unit": "%"}, {"measurement": "Percentage of mice in which the test compound prevented seizure in the 6 Hz test", "setting": "6 Hz seizures; [5]", "result": 100, "unit": "%"}, {"measurement": "Percentage of mice in which the test compound prevented seizure in the 6 Hz test", "setting": "6 Hz seizures; 100 mg/kg i.p., 1.0 h after administration", "result": 100, "unit": "%"}, {"measurement": "Percentage of mice in which the test compound prevented seizure in the 6 Hz test", "setting": "6 Hz seizures; 100 mg/kg i.p., 2.0 h after administration", "result": 100, "unit": "%"}, {"measurement": "Percentage of mice in which the test compound prevented seizure in the 6 Hz test", "setting": "6 Hz seizures; [6]", "result": 0, "unit": "%"}, {"measurement": "ED50", "setting": "6 Hz seizures; Mus musculus, ip, read-out: ED50 (6 Hz seizures)", "result": "30 to 80", "unit": "mg/kg"}, {"measurement": "acute neurotoxicity as measured by the rotorod test", "setting": "mice", "result": "No acute neurotoxicity was observed"}, {"measurement": "Percentage of mice in which the test compound prevented MES-induced seizure", "setting": "MES-induced seizure [1]; [4]", "result": 0, "unit": "%"}, {"measurement": "Percentage of mice in which the test compound prevented MES-induced seizure", "setting": "MES-induced seizure [1]; 30 mg/kg i.p., 4.0 h after administration", "result": 0, "unit": "%"}, {"measurement": "Percentage of mice in which the test compound prevented MES-induced seizure", "setting": "MES-induced seizure [1]; [5]", "result": 66, "unit": "%"}, {"measurement": "Percentage of mice in which the test compound prevented MES-induced seizure", "setting": "MES-induced seizure [1]; [6]", "result": 100, "unit": "%"}, {"measurement": "Percentage of mice in which the test compound prevented MES-induced seizure", "setting": "MES-induced seizure [1]; 300 mg/kg i.p., 0.5 h after administration", "result": 100, "unit": "%"}, {"measurement": "Percentage of mice in which the test compound prevented MES-induced seizure", "setting": "MES-induced seizure [1]; 300 mg/kg i.p., 4.0 h after administration", "result": 100, "unit": "%"}, {"measurement": "ED50", "setting": "MES-induced seizure [1]; Mus musculus, ip, 0.5 h, read-out: ED50 (MES)", "result": "53.4 ± 14.9", "unit": "mg/kg"}, {"measurement": "ED50", "setting": "[2]; Rattus norvegicus, hippocampal kindled rats, from doses of 12.5, 25, 50 and 100 mg/kg, read-out: ED50, dose required to prevent the expression of focal seizures", "result": 51.4, "unit": "mg/kg"}, {"measurement": "Afterdischarge Duration ± SEM", "setting": "[2]; 15 min", "result": "19.14 ± 9.58", "unit": "s"}, {"measurement": "Racine Seizure Score ± SEM", "setting": "[2]; 15 min", "result": "1.43 ± 0.81"}, {"measurement": "Afterdischarge Duration ± SEM", "setting": "[2]; 45 min", "result": "25.29 ± 13.71", "unit": "s"}, {"measurement": "Racine Seizure Score ± SEM", "setting": "[2]; 45 min", "result": "1.29 ± 0.84"}, {"measurement": "Afterdischarge Duration ± SEM", "setting": "[2]; 75 min", "result": "24.86 ± 11.43", "unit": "s"}, {"measurement": "Racine Seizure Score ± SEM", "setting": "[2]; 75 min", "result": "0.71 ± 0.57"}, {"measurement": "Afterdischarge Duration ± SEM", "setting": "[2]; 105 min", "result": "33.29 ± 14.17", "unit": "s"}, {"measurement": "Racine Seizure Score ± SEM", "setting": "[2]; 105 min", "result": "1.29 ± 0.64"}, {"measurement": "Afterdischarge Duration ± SEM", "setting": "[2]; 135 min", "result": "34.71 ± 14.35", "unit": "s"}, {"measurement": "Racine Seizure Score ± SEM", "setting": "[2]; 135 min", "result": "1.57 ± 0.81"}, {"measurement": "Afterdischarge Duration ± SEM", "setting": "[2]; 165 min", "result": "57.43 ± 18.17", "unit": "s"}, {"measurement": "Racine Seizure Score ± SEM", "setting": "[2]; 165 min", "result": "1.57 ± 0.65"}, {"measurement": "Afterdischarge Duration ± SEM", "setting": "[2]; 195 min", "result": "55.29 ± 18.19", "unit": "s"}, {"measurement": "Racine Seizure Score ± SEM", "setting": "[2]; 195 min", "result": "1.57 ± 0.69"}, {"measurement": "Afterdischarge Duration ± SEM", "setting": "[2]; 225 min", "result": "71.29 ± 18.99", "unit": "s"}, {"measurement": "Racine Seizure Score ± SEM", "setting": "[2]; 225 min", "result": "1.86 ± 0.70"}, {"measurement": "Afterdischarge Duration ± SEM", "setting": "[2]; 255 min", "result": "65.43 ± 17.91", "unit": "s"}, {"measurement": "Racine Seizure Score ± SEM", "setting": "[2]; 255 min", "result": "1.86 ± 0.63"}, {"measurement": "Percentage of rats in which the test compound prevented MES-induced seizure", "setting": "MES-induced seizure [3]; 0.25 h after administration", "result": 100, "unit": "%"}, {"measurement": "Percentage of rats in which the test compound prevented MES-induced seizure", "setting": "MES-induced seizure [3]; 0.5 h after administration", "result": 100, "unit": "%"}, {"measurement": "Percentage of rats in which the test compound prevented MES-induced seizure", "setting": "MES-induced seizure [3]; 1.0 h after administration", "result": 100, "unit": "%"}, {"measurement": "Percentage of rats in which the test compound prevented MES-induced seizure", "setting": "MES-induced seizure [3]; 2.0 h after administration", "result": 100, "unit": "%"}, {"measurement": "Percentage of rats in which the test compound prevented MES-induced seizure", "setting": "MES-induced seizure [3]; 4.0 h after administration", "result": 100, "unit": "%"}, {"measurement": "ED50", "setting": "MES-induced seizure [3]; Rattus norvegicus, po, read-out: ED50 required to inhibit MES-induced seizure", "result": "6.6 ± 5.07", "unit": "mg/kg"}, {"measurement": "Time to Peak Effect", "setting": "MES-induced seizure [3]; rat, oral administration, MES test", "result": 1, "unit": "h"}, {"measurement": "ED50 for toxicity relative to ED50 for anti-convulsant activity", "setting": "rats", "result": "~60", "unit": "times"}]}]}
